Earlier results in patent publication US20160128954A1 (Raptor Pharmaceuticals Inc., priority 2014, published 2016).

Experiments:
[1] = in vivo
[2] = tested on: mice with the gene mutation for Huntington's disease (HD); details: mouse, in vivo
HD patients = details: five patients over 2 weeks
[3] = tested on: circulating white blood cells

SMILES | crossing of the blood-brain barrier [1] | effect on tremors and life span [2] | efficacy in HD (HD patients) | time to decrease in leukocyte cystine ([3]; delivery into the small intestine (WO 2007/089670)) | depletion of intracellular cystine ([3]; taken regularly, measured in circulating white blood cells)
NCCSSCCN [cystamine, Cystamine] | does not, or corsses less efficiently than cysteamine | alleviate tremors and prolong life | – | – | –
NCCS [cysteamine, Cysteamine (HS—CH2—CH2—NH2)] | crosses the blood-brain barrier | – | no efficacy | within an hour | up to 90%
